The numbers were not newly measured in patent US20080300263A1, “Pyrazolo [1,5-a] pyrimidine compounds and pharmaceutical compositions containing them” (EiRx Therapeutics plc, priority 2005, published 2008), which cites them from elsewhere.

The data set relates to colon cancer. The conditions noted are these: cited from earlier work.

For the substance “Avastin: FDA-approved monoclonal antibody (Genentech) blocking vascular endothelial growth factor (VEGF)”, the “lived longer than patients on the standard regimen alone” value is recorded as “about five”.
